The results in this text go back to patent US9296687B2, “Modulators of HSP70/DnaK function and methods of use thereof” (The Trustees of the University of Pennsylvania, priority 2008, dated 2016).

For test [1], the target named is DnaK (Escherichia coli, UniProt P0A6Y8). The test is described as follows: Identification of B-PES interacting protein in bacteria by LC-tandem MS. Particulars: E. coli DH5α, 50 μM B-PES, 3 h.
For test [2], the system named is caspase-3, caspase-8. The experiment in a line: Western blot for caspase cleavage. The format is cell-based, human.
The test system of test [3] is FADU cells. The test is described as follows: Sulforhodamine B colorimetric assay, PES plus cisplatin. The test is classed as cell-based, human. Particulars: 0-100 μM, 1:1 ratio, 72 h. The protocol:
FIG. 20. PES and cisplatin act synergistically to kill cancer cells. […] Experiments were done in triplicate per condition.
Cells (2×10^4) were plated into 96 well plates in 200 μl media and allowed to attach overnight. Cells were then treated with the indicated doses of PES, cisplatin or PES+Cisplatin. After 72 hr incubation period, cells were washed in PBS and 100 μl of ice cold 10% TCA was added for 1 hr at 4° C. Plates were washed four times with slow-running tap water and air-dried at room temperature. 100 μl of 0.057% SRB solution was added to the cells and incubated for 30 min at room temperature. Fixed cells were quickly rinsed four times with 1% acetic acid to remove unbound dye. The protein-bound dye was solubilized using 200 μl of 10 mM Tris base solution (pH 10.5) per well, and the wells were spectrophotometrically quantified at an absorbance of 540 nm. This methodology is identical to that in Shekan et al, JNCI 82:1107 (1990).

Chain of DnaK (P0A6Y8 whole entry): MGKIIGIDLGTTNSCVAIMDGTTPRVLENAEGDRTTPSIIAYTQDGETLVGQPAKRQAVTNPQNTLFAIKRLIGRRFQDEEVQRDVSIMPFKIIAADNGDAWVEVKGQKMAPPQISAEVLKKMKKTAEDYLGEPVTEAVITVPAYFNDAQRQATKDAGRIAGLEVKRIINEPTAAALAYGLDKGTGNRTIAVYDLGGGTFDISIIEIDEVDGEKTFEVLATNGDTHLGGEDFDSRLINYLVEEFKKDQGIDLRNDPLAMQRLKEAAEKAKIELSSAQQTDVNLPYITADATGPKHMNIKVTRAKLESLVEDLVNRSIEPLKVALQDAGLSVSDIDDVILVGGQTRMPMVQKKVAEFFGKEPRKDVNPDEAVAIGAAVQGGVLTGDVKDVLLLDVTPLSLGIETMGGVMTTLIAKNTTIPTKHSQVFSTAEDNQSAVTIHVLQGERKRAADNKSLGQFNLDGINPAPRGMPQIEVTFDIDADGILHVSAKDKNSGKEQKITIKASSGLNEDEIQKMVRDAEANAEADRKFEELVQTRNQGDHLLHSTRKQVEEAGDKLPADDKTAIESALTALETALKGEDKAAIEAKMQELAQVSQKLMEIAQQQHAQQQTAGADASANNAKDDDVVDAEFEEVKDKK

As to `NS(=O)(=O)C#Cc1ccccc1` [PES, 2-Phenylethynesulfonamide], the “interaction with DnaK” value in test [1] is “interacts with DnaK”. Besides, the “cleavage of caspase-3, caspase-8 or PARP” value in test [2] (PES 20 μM alone) was “not accompanied by cleavage of caspase-3, caspase-8, or PARP”. Also, the “caspase-cleavage products after cisplatin” value in test [2] (co-treatment with cisplatin) is given as “effectively inhibited the appearance of these caspase-cleavage products”. In addition, in test [3], the “combination effect with cisplatin” value is “acts synergistically with cisplatin”.
